Laboratory results taken from patent publication US8076487B2, “Pyridone derivative and herbicide” (Kumiai Chemical Industry Co., Ltd., priority 2006, dated 2011).

What was measured:
Assay type in all cases: in vivo
[1] = tested on: green foxtail (Setaria viridis (L.) P. Beauv.); assay: Test Example 2: herbicidal effect by soil application to upland field; settings: soil surface spray, upland field soil, 1,000 g active ingredient per hectare, 21st day after application
Summary of the method: (§1)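 After sowing and covering, the soil received an even aqueous spray of wettable powder at a rate of 1,000 g active ingredient/ha (1,000 L/ha). Ratings of herbicidal effect followed a standard scale 21 days post-treatment, with plants held in a greenhouse.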

[2] = tested on: barnyardgrass (Echinochloa crus-galli (L.) P. Beauv. var. crus-galli); assay: as above; settings: soil surface spray, upland field soil, 1,000 g active ingredient per hectare, 21st day after application
Summary of the method: as §1

[3] = tested on: velvetleaf (Abutilon theophrasti medicus); assay: as above; settings: soil surface spray, upland field soil, 1,000 g active ingredient per hectare, 21st day after application
Summary of the method: as §1

[4] = tested on: slender amaranth (Amaranthus viridis L.); assay: as above; settings: soil surface spray, upland field soil, 1,000 g active ingredient per hectare, 21st day after application
Summary of the method: as §1

[5] = tested on: green foxtail (Setaria viridis (L.) P. Beauv.); assay: Test Example 3: herbicidal effect by application to upland field (foliage treatment); settings: 14th day after application; for herbicidal effect, Green Foxtail: foliage treatment, 1,000 g active ingredient per 1 hectare, greenhouse; for herbicidal effect (index), Green Foxtail: foliage treatment, plants grown two weeks, 1,000 g active ingredient per hectare
Summary of the method: (§2)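 Greenhouse-grown plants, two weeks old in field soil, were treated by spraying their foliage with a water dilution of wettable powder. Rate: 1,000 g active ingredient in a 1,000 L/ha equivalent volume. Assessment followed at 14 days.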

[6] = tested on: barnyardgrass (Echinochloa crus-galli (L.) P. Beauv. var. crus-galli); assay: as above; settings: 14th day after application; for herbicidal effect, Barnyardgrass: foliage treatment, 1,000 g active ingredient per 1 hectare, greenhouse; for herbicidal effect (index), Barnyardgrass: foliage treatment, plants grown two weeks, 1,000 g active ingredient per hectare
Summary of the method: as §2

[7] = tested on: velvetleaf (Abutilon theophrasti medicus); assay: as above; settings: 14th day after application; for herbicidal effect, Velvetleaf: foliage treatment, 1,000 g active ingredient per 1 hectare, greenhouse; for herbicidal effect (index), Velvetleaf: foliage treatment, plants grown two weeks, 1,000 g active ingredient per hectare
Summary of the method: as §2

[8] = tested on: slender amaranth (Amaranthus viridis L.); assay: as above; settings: 14th day after application; for herbicidal effect, Slender Amaranth: foliage treatment, 1,000 g active ingredient per 1 hectare, greenhouse; for herbicidal effect (index), Slender Amaranth: foliage treatment, plants grown two weeks, 1,000 g active ingredient per hectare
Summary of the method: as §2

[9] = tested on: heartshape false pickerelweed (Monochoria vaginalis (Burm.f.) C.Presl); assay: Test Example 1: herbicidal effect by soil application to paddy field; settings: paddy field soil application; active ingredient 1,000 g per 1 hectare; wettable powder added dropwise to water surface the day after sowing; examined on the 21st day after application
Summary of the method: (§3)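 Plants were sown in flooded (3 cm) paddy soil and evaluated for herbicidal effect 21 days after soil application in a greenhouse.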

[10] = tested on: Japanese bulrush (Scirpus juncoides Roxb.); assay: as above; settings: paddy field soil application; active ingredient 1,000 g per 1 hectare; wettable powder added dropwise to water surface the day after sowing; examined on the 21st day after application
Summary of the method: as §3

[11] = tested on: early watergrass (Echinochloa oryzicola Vasing); assay: as above; settings: paddy field soil application; active ingredient 1,000 g per 1 hectare; wettable powder added dropwise to water surface the day after sowing; examined on the 21st day after application
Summary of the method: as §3

| Compound | herbicidal effect (index), Green Foxtail [1] | herbicidal effect (index), Barnyardgrass [2] | herbicidal effect (index), Velvetleaf [3] | herbicidal effect (index), Slender Amaranth [4] | herbicidal effect, Green Foxtail [5] | herbicidal effect, Barnyardgrass [6] | herbicidal effect, Velvetleaf [7] | herbicidal effect, Slender Amaranth [8] | herbicidal effect, Monochoria vaginalis (Burm. f.) C. Presl [9] | herbicidal effect, Scirpus juncoides Roxb. [10] | herbicidal effect, Echinochloa oryzicola Vasing [11] | herbicidal effect (index), Green Foxtail [5] | herbicidal effect (index), Barnyardgrass [6] | herbicidal effect (index), Velvetleaf [7] | herbicidal effect (index), Slender Amaranth [8] |
| --- | --- | --- | --- | --- | --- | --- | --- | --- | --- | --- | --- | --- | --- | --- | --- |
| Cn1ncc(C(=O)c2ccc(C(F)(F)F)n(CC3CCCO3)c2=O)c1O (centres unmarked) [IV-129] | 3 (50 to less than 70% of herbicidal effect and crop phytotoxicity) | 4 (70 to less than 90% of herbicidal effect and crop phytotoxicity) | 5 (90% or more of herbicidal effect and crop phytotoxicity) | 5 (90% or more of herbicidal effect and crop phytotoxicity) | 4 (70 to less than 90% of herbicidal effect and crop phytotoxicity) | 5 (90% or more of herbicidal effect and crop phytotoxicity) | 5 (90% or more of herbicidal effect and crop phytotoxicity) | 5 (90% or more of herbicidal effect and crop phytotoxicity) | 5 (90% or more of herbicidal effect and crop phytotoxicity) | 5 (90% or more of herbicidal effect and crop phytotoxicity) | 5 (90% or more of herbicidal effect and crop phytotoxicity) | – | – | – | – |
| Cn1ncc(C(=O)c2ccc(C(F)(F)F)n(CCS(C)(=O)=O)c2=O)c1O [IV-54] | 5 (90% or more of herbicidal effect and crop phytotoxicity) | 5 (90% or more of herbicidal effect and crop phytotoxicity) | 5 (90% or more of herbicidal effect and crop phytotoxicity) | 5 (90% or more of herbicidal effect and crop phytotoxicity) | 5 (90% or more of herbicidal effect and crop phytotoxicity) | 5 (90% or more of herbicidal effect and crop phytotoxicity) | 5 (90% or more of herbicidal effect and crop phytotoxicity) | 5 (90% or more of herbicidal effect and crop phytotoxicity) | 4 (70 to less than 90% of herbicidal effect and crop phytotoxicity) | 4 (70 to less than 90% of herbicidal effect and crop phytotoxicity) | 5 (90% or more of herbicidal effect and crop phytotoxicity) | – | – | – | – |
| O=C1CCCC(O)=C1C(=O)c1ccc(C(F)(F)F)n(-c2ccc(F)cc2)c1=O [I-93] | 5 (90% or more of herbicidal effect and crop phytotoxicity) | 5 (90% or more of herbicidal effect and crop phytotoxicity) | 5 (90% or more of herbicidal effect and crop phytotoxicity) | 5 (90% or more of herbicidal effect and crop phytotoxicity) | – | – | – | – | 5 (90% or more of herbicidal effect and crop phytotoxicity) | 5 (90% or more of herbicidal effect and crop phytotoxicity) | 5 (90% or more of herbicidal effect and crop phytotoxicity) | 5 (90% or more of herbicidal effect and crop phytotoxicity) | 5 (90% or more of herbicidal effect and crop phytotoxicity) | 5 (90% or more of herbicidal effect and crop phytotoxicity) | 5 (90% or more of herbicidal effect and crop phytotoxicity) |
| CS(=O)(=O)c1cccc(-n2c(C(F)(F)F)ccc(C(=O)C3=C(O)CCCC3=O)c2=O)c1 [I-82] | 5 (90% or more of herbicidal effect and crop phytotoxicity) | 5 (90% or more of herbicidal effect and crop phytotoxicity) | 5 (90% or more of herbicidal effect and crop phytotoxicity) | 5 (90% or more of herbicidal effect and crop phytotoxicity) | – | – | – | – | 5 (90% or more of herbicidal effect and crop phytotoxicity) | 5 (90% or more of herbicidal effect and crop phytotoxicity) | 5 (90% or more of herbicidal effect and crop phytotoxicity) | 5 (90% or more of herbicidal effect and crop phytotoxicity) | 5 (90% or more of herbicidal effect and crop phytotoxicity) | 5 (90% or more of herbicidal effect and crop phytotoxicity) | 5 (90% or more of herbicidal effect and crop phytotoxicity) |
| COC(C)Cn1c(C(F)(F)F)ccc(C(=O)c2cnn(C)c2O)c1=O (centres unmarked) [IV-38] | 4 (70 to less than 90% of herbicidal effect and crop phytotoxicity) | 5 (90% or more of herbicidal effect and crop phytotoxicity) | 5 (90% or more of herbicidal effect and crop phytotoxicity) | 5 (90% or more of herbicidal effect and crop phytotoxicity) | 5 (90% or more of herbicidal effect and crop phytotoxicity) | 5 (90% or more of herbicidal effect and crop phytotoxicity) | 5 (90% or more of herbicidal effect and crop phytotoxicity) | 5 (90% or more of herbicidal effect and crop phytotoxicity) | 5 (90% or more of herbicidal effect and crop phytotoxicity) | 5 (90% or more of herbicidal effect and crop phytotoxicity) | 5 (90% or more of herbicidal effect and crop phytotoxicity) | – | – | – | – |
| Cn1ncc(C(=O)c2ccc(C(F)(F)F)n(-c3cc(F)cc(F)c3)c2=O)c1O [IV-80] | 5 (90% or more of herbicidal effect and crop phytotoxicity) | 5 (90% or more of herbicidal effect and crop phytotoxicity) | 5 (90% or more of herbicidal effect and crop phytotoxicity) | 5 (90% or more of herbicidal effect and crop phytotoxicity) | 5 (90% or more of herbicidal effect and crop phytotoxicity) | 5 (90% or more of herbicidal effect and crop phytotoxicity) | 5 (90% or more of herbicidal effect and crop phytotoxicity) | 5 (90% or more of herbicidal effect and crop phytotoxicity) | 5 (90% or more of herbicidal effect and crop phytotoxicity) | 5 (90% or more of herbicidal effect and crop phytotoxicity) | 5 (90% or more of herbicidal effect and crop phytotoxicity) | – | – | – | – |
| CCCS(=O)(=O)Oc1c(C(=O)c2ccc(C(F)(F)F)n(CC3CC(C)=NO3)c2=O)cnn1CC (centres unmarked) [IV-106] | 5 (90% or more of herbicidal effect and crop phytotoxicity) | 5 (90% or more of herbicidal effect and crop phytotoxicity) | 5 (90% or more of herbicidal effect and crop phytotoxicity) | 5 (90% or more of herbicidal effect and crop phytotoxicity) | 5 (90% or more of herbicidal effect and crop phytotoxicity) | 5 (90% or more of herbicidal effect and crop phytotoxicity) | 5 (90% or more of herbicidal effect and crop phytotoxicity) | 5 (90% or more of herbicidal effect and crop phytotoxicity) | 5 (90% or more of herbicidal effect and crop phytotoxicity) | 5 (90% or more of herbicidal effect and crop phytotoxicity) | 5 (90% or more of herbicidal effect and crop phytotoxicity) | – | – | – | – |
